Reference: patent US20110245242A1, “Heterocyclically Substituted Anilinopyrimides” (Bayer CropScience AG, priority 2008, published 2011)

Legend:
Type in all cases: physicochemical
[1] = log P by HPLC on reversed-phase columns (C 18), method [a], acidic range pH 2.3; details: pH 2.3
Experimental: The log P values were measured in accordance with EEC Directive 79/831 Annex V.A8 by HPLC (High Performance Liquid Chromatography) on reversed-phase columns (C 18) using the methods below: [a] The determination was carried out in the acidic range at pH 2.3 using the mobile phases 0.1% aqueous phosphoric acid and acetronitrile linear gradient from 10% acetonitrile to 95% acetronitrile.

physchem = details: pH 7.8
Experimental: The log P values were measured in accordance with EEC Directive 79/831 Annex V.A8 by HPLC (High Performance Liquid Chromatography) on reversed-phase columns (C 18) using the methods below: [c] The LC-MS determination in the neutral range was carried out at pH 7.8 using the mobile phases 0.001 molar aqueous ammonium bicarbonate solution and acetonitrile linear gradient from 10% acetonitrile to 95% acetonitrile.

[2] = log P by LC-MS, method [b], acid range pH 2.7; details: pH 2.7
Experimental: The log P values were measured in accordance with EEC Directive 79/831 Annex V.A8 by HPLC (High Performance Liquid Chromatography) on reversed-phase columns (C 18) using the methods below:
[b] The LC-MS determination in the acid range was carried out at pH 2.7 using the mobile phases 0.1% aqueous formic acid and acetonitrile (contains 0.1% formic acid)
linear gradient from 10% acetonitrile to 95% acetonitrile.

| SMILES | log p [1] | log p (physchem) | log p [2] |
| --- | --- | --- | --- |
| COCC(C)Nc1nc(Nc2cccc(N3CCCC3=O)c2)ncc1C(F)(F)F (centres unmarked) [Example 6] | 2.4[a]; | 2.79[c] | – |
| O=C1CCCN1c1ccc(Nc2ncc(Cl)c(NCC(F)(F)F)n2)cc1 [Example 9] | 1.96[a]; | 2.34[c] | – |
| O=C1CCCN1c1cccc(Nc2ncc(Cl)c(NCC(F)(F)F)n2)c1 [Example 10] | 2.08[a]; | 2.42[c] | – |
| O=C1OCCN1c1ccc(Nc2ncc(I)c(NC3CC3)n2)cc1 [Example 11] | 1.41[a]; | 2.48[c] | – |
| C=CCNc1nc(Nc2ccc(N3CCCC3=O)cc2)ncc1Cl [Example 13] | 1.38[a]; | 2.29[c] | – |
| C=CCNc1nc(Nc2cccc(N3CCCC3=O)c2)ncc1Cl [Example 14] | 1.45[a]; | 2.37[c] | – |
| C=CCNc1nc(Nc2ccc(N3CCOC3=O)cc2)ncc1Cl [Example 15] | 1.25[a]; | 2.25[c] | – |
| O=C1OCCN1c1ccc(Nc2ncc(Cl)c(NC3COC3)n2)cc1 [Example 17] | 0.26[a]; | 0.76[c] | – |
| O=C1CCCN1c1ccc(Nc2ncc(Cl)c(NC3COC3)n2)cc1 [Example 18] | 0.41[a]; | 0.9[c] | – |
| O=C1CCCN1c1cc(Nc2ncc(Cl)c(NC3CC3)n2)ccc1OC(F)(F)F [Example 20] | 2.34[a]; | 2.91[c] | – |
| CC(C)Nc1nc(Nc2ccc(N3CCCC3=O)cc2)ncc1Cl [Example 21] | 1.44[a]; | 2.56[c] | – |
| CC(C)Nc1nc(Nc2cccc(N3CCCC3=O)c2)ncc1Cl [Example 22] | 1.52[a]; | 2.64[c] | – |
| CSCC(C)(C)Nc1nc(Nc2cccc(N3CCCC3=O)c2)ncc1Cl [Example 41] | 2.17[a]; | 3.26[c] | – |
| O=C1CCCN1c1cccc(Nc2ncc(F)c(NC3CCC3)n2)c1 [Example 43] | 1.31[a]; | 2.32[c] | – |
| O=C1CCCN1c1cccc(Nc2ncc(Cl)c(NCC(F)F)n2)c1 [Example 44] | 1.64[a]; | 2.19[c] | – |
| O=C1CCCN1c1cc(Nc2ncc(Cl)c(NCC(F)F)n2)ccc1F [Example 51] | 1.72[a]; | 2.15[c] | – |
| CNc1nc(Nc2ccc(N3CCOC3=O)cc2)ncc1Cl [Example 61] | 0.73[a]; | 1.82[c] | – |
| CC(C)N(C)c1nc(Nc2cccc(N3CCCC3=O)c2)ncc1Cl [Example 77] | 2.1[a]; | 3.18[c] | – |
| O=C1C(O)CCN1c1cccc(Nc2ncc(Cl)c(NC3CC3)n2)c1 (centres unmarked) [Example 78] | 1.14[a]; | 1.84[c] | – |
| O=C1CCC(CO)N1c1cccc(Nc2ncc(Br)c(NC3CC3)n2)c1 (centres unmarked) [Example 79] | 1.04[a]; | 1.65[c] | – |
| O=C1CCC(C(F)(F)F)N1c1cccc(Nc2ncc(Cl)c(NC3CC3)n2)c1 (centres unmarked) [Example 260] | – | 2.67[c]; | 1.89[b] |
| CC(C)C1COC(=O)N1c1cccc(Nc2ncc(C(F)(F)F)c(NC3CCC3)n2)c1 (centres unmarked) [Example 263] | – | 3.85[c]; | 3.47[b] |
| CC1CN(c2cccc(Nc3ncc(Cl)c(NC4CC4)n3)c2)C(=O)O1 (centres unmarked) [Example 264] | – | 2.56[c]; | 1.65[b] |
| CC1CC(Nc2nc(Nc3cccc(N4C(=O)CC(C)C4=O)c3)ncc2Br)C1 (centres unmarked) [Example 281] | – | 2.98[c]; | 2.23[b] |
| CC1CN(c2cccc(Nc3ncc(Br)c(NC4CCC4)n3)c2)C(=O)O1 (centres unmarked) [Example 287] | – | 3.17[c]; | 2.04[b] |

| SMILES | log p [1] | log p (physchem) | log p [2] |
| --- | --- | --- | --- |
| CC1CC(C)N(c2cccc(Nc3ncc(C(F)(F)F)c(NC4CCC4)n3)c2)C1=O (centres unmarked) [Example 289] | – | 3.74[c]; | 3.27[b] |
| CC1CCN(c2cccc(Nc3ncc(C(F)(F)F)c(NC4CC4)n3)c2)C1=O (centres unmarked) [Example 292] | – | 3.05[c]; | 2.65[b] |
| CCC1CCC(=O)N1c1cccc(Nc2ncc(Cl)c(NC3CC3)n2)c1 (centres unmarked) [Example 294] | – | 2.74[c]; | 1.87[b] |
| CC1CC1Nc1nc(Nc2cccc(N3C(=O)CC(C)(C)C3=O)c2)ncc1Br (centres unmarked) [Example 295] | – | 3.11[c]; | 2.2[b] |
| CC(C)Nc1nc(Nc2cccc(N3CCCC3=O)c2)ncc1C(F)(F)F [Example 297] | – | 3[c]; | 2.35[b] |
| CC1CC(Nc2nc(Nc3cccc(N4CCCC4=O)c3)ncc2Cl)C1 (centres unmarked) [Example 299] | – | 3.26[c]; | 3.25[b] |
| O=C1CCCN1c1cccc(Nc2ncc(C(F)(F)F)c(N3CCCC3)n2)c1 [Example 301] | – | 3.24[c]; | 2.45[b] |
| O=C1CCCN1c1cccc(Nc2ncc(C(F)(F)F)c(NCCF)n2)c1 [Example 302] | – | 2.67[c]; | 2.05[b] |
| CC1CC1N(C)c1nc(Nc2cccc(N3CCCC3=O)c2)ncc1Cl (centres unmarked) [Example 304] | – | 3.53[c]; | 2.66[b] |
| Cc1ccc(Nc2ncc(Cl)c(NC3CC3)n2)cc1N1CCCC1=O [Example 305] | – | 2.32[c]; | 1.44[b] |
| O=C1CCCN1c1cccc(Nc2ncc(C(F)(F)F)c(NCC(F)(F)F)n2)c1 [Example 306] | – | 2.66[c]; | 2.6[b] |
| CC1CC1Nc1nc(Nc2ccc(N3CCOC3=O)cc2)ncc1Br (centres unmarked) [Example 308] | – | 2.91[c]; | 1.97[b] |
| COC(=O)N(c1cccc(N2CCCC2=O)c1)c1ncc(C(F)(F)F)c(NC2CC2)n1 [Example 309] | – | 2.37[c]; | 2.25[b] |
| Cc1cc(Nc2ncc(C(F)(F)F)c(NC3CC3)n2)cc(N2CCCC2=O)c1 [Example 310] | – | 2.98[c]; | 2.51[b] |
| O=C1CCCN1c1cccc(Nc2ncc(C(F)(F)F)c(NCC(F)F)n2)c1 [Example 311] | – | 2.52[c]; | 2.38[b] |
| CC1CN(c2cccc(Nc3ncc(Cl)c(NC4CCC4)n3)c2)C(=O)O1 (centres unmarked) [Example 312] | – | 3.02[c]; | 1.91[b] |
| O=C1CCC(C(F)(F)F)N1c1cccc(Nc2ncc(C(F)(F)F)c(NC3CC3)n2)c1 (centres unmarked) [Example 314] | – | 2.98[c]; | 2.74[b] |
| Cc1ccc(Nc2ncc(C(F)(F)F)c(NC3CC3)n2)cc1N1CCCC1=O [Example 316] | – | 2.62[c]; | 2.16[b] |
| COc1cc(Nc2ncc(Cl)c(NC3CC3)n2)cc(N2CCCC2=O)c1 [Example 318] | – | 2.46[c]; | 1.64[b] |
| COc1ccc(Nc2ncc(C(F)(F)F)c(NC3CC3)n2)cc1N1CCCC1=O [Example 324] | – | 2.51[c]; | 1.98[b] |
| CN(c1cccc(N2CCCC2=O)c1)c1ncc(Cl)c(N(C)C2CC2)n1 [Example 325] | – | 3.66[c]; | 1.98[b] |
| COc1cc(Nc2ncc(C(F)(F)F)c(NC3CC3)n2)cc(N2CCCC2=O)c1 [Example 326] | – | 2.8[c]; | 2.47[b] |
| COC(=O)N(c1cccc(N2CCCC2=O)c1)c1ncc(Cl)c(NC2CC2)n1 [Example 327] | – | 1.99[c]; | 1.77[b] |
| CC1CC(Nc2nc(Nc3cccc(N4C(=O)CC(C)C4=O)c3)ncc2Cl)C1 (centres unmarked) [Example 333] | – | 3.09[c]; | 2.09[b] |
